In brackets after ≈: the same amount, converted by molar mass.
Legend:
[1] = target: Serine/threonine-protein kinase 16 (Homo sapiens, UniProt O75716); experiment: Inhibition of STK16 (unknown origin) after 60 mins by TR-FRET assay
[2] = target: T1, Dual specificity protein kinase TTK (Homo sapiens, UniProt P33981); experiment: Inhibition of TTK (unknown origin) after 60 mins by TR-FRET assay
T1 sequence (P33981 whole entry): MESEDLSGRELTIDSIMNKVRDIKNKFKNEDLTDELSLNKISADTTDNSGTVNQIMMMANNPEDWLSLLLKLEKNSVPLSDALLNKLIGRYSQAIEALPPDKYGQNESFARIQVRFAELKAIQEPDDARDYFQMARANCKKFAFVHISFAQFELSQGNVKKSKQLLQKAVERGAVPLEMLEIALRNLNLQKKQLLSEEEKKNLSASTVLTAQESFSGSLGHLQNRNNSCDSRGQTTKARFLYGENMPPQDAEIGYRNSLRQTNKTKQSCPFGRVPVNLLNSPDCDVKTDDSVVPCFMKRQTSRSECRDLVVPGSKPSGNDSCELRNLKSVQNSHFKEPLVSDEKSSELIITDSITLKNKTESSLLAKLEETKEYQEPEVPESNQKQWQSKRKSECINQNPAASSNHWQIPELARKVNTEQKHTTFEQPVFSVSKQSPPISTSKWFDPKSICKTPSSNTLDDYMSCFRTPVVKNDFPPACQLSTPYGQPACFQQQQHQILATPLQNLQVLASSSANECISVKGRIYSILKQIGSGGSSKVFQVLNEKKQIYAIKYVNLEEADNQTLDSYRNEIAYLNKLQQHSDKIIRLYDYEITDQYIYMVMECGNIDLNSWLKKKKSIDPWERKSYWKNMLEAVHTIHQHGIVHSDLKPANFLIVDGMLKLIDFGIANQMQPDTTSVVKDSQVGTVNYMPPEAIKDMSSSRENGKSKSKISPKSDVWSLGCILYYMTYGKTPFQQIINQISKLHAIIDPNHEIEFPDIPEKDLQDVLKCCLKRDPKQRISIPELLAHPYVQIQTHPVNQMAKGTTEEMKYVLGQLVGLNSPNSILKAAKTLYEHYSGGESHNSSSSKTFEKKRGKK

[3] = Solubility in pH 5 FeSSIF at 0.2 mg sonicated for 10 mins followed by incubation for 2 days by HPLC analysis; type: physicochemical
Cytochrome P450 3A4 = Cytochrome P450 3A4 (Homo sapiens, UniProt P08684); experiment: Time-dependent inhibition of CYP3A4 in human liver microsomes at 10 to 50 uM; type: ADME
Cytochrome P450 3A4, sequence (P08684 whole entry): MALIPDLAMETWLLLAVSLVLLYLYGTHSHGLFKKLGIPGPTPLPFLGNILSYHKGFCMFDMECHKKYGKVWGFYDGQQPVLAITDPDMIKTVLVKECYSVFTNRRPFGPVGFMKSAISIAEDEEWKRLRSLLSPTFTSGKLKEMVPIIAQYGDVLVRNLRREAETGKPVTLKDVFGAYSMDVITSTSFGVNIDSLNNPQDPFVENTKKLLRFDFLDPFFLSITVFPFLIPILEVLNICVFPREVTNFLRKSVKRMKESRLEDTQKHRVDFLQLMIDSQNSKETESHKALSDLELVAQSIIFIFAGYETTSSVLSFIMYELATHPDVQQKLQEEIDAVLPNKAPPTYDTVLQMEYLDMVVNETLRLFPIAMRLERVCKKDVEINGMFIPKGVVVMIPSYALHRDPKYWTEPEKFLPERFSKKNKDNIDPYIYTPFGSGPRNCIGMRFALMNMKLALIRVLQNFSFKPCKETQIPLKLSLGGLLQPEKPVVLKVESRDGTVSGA

CYP3A4 [4] = target: T2, CYP3A4 (Homo sapiens, UniProt P08684); experiment: Inhibition of CYP3A4 in human liver microsomes assessed as residual activity at 10 uM measured after 30 mins relative to control; type: ADME; settings: read-out: Activity
T2 sequence (P08684 whole entry): as above

CYP3A4 [5] = target: T2, CYP3A4; experiment: Inhibition of CYP3A4 in human liver microsomes assessed as residual activity at 50 uM measured after 30 mins relative to control; type: ADME; settings: read-out: Activity
CYP3A4 [6] = target: T2, CYP3A4; experiment: Inhibition of CYP3A4 in human liver microsomes assessed as residual activity at 10 uM measured immediately relative to control; type: ADME; settings: read-out: Activity
CYP3A4 [7] = target: T2, CYP3A4; experiment: Inhibition of CYP3A4 in human liver microsomes assessed as residual activity at 50 uM measured immediately relative to control; type: ADME; settings: read-out: Activity
[8] = target: Tyrosine-protein kinase SYK (Homo sapiens, UniProt P43405)
Description: Inhibition of C-terminal His-tagged Syk catalytic domain (356 to 635 residues) (unknown origin) using biotin-TYR1 as substrate after 60 mins by TR-FRET assay

[9] = Inhibition of CDK11 (unknown origin) after 60 mins by TR-FRET assay; parameters: species or system Homo sapiens
[10] = target: Serine/threonine-protein kinase pim-2 (Homo sapiens, UniProt Q9P1W9); experiment: Inhibition of PIM2 (unknown origin) after 60 mins by TR-FRET assay
[11] = target: Serine/threonine-protein kinase Sgk1 (Homo sapiens, UniProt O00141); experiment: Inhibition of SGK1 (unknown origin) after 60 mins by TR-FRET assay
Serine/threonine-protein kinase Sgk1, sequence (O00141 whole entry): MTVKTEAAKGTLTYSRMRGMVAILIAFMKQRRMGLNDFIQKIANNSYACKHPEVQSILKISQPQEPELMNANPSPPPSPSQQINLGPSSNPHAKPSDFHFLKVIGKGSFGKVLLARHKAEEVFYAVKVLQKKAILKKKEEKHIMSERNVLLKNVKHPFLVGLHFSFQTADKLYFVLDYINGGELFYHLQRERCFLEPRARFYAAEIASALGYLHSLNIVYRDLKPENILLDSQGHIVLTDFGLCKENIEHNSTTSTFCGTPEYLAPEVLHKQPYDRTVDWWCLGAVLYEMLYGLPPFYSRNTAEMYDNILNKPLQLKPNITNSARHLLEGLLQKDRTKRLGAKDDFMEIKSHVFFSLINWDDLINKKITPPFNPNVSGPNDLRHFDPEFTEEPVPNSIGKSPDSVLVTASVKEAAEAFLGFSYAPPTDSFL

[12] = target: Serine/threonine-protein kinase B-raf (Homo sapiens, UniProt P15056); experiment: Inhibition of BRAF (unknown origin) after 60 mins by TR-FRET assay
Serine/threonine-protein kinase B-raf, sequence (P15056 whole entry): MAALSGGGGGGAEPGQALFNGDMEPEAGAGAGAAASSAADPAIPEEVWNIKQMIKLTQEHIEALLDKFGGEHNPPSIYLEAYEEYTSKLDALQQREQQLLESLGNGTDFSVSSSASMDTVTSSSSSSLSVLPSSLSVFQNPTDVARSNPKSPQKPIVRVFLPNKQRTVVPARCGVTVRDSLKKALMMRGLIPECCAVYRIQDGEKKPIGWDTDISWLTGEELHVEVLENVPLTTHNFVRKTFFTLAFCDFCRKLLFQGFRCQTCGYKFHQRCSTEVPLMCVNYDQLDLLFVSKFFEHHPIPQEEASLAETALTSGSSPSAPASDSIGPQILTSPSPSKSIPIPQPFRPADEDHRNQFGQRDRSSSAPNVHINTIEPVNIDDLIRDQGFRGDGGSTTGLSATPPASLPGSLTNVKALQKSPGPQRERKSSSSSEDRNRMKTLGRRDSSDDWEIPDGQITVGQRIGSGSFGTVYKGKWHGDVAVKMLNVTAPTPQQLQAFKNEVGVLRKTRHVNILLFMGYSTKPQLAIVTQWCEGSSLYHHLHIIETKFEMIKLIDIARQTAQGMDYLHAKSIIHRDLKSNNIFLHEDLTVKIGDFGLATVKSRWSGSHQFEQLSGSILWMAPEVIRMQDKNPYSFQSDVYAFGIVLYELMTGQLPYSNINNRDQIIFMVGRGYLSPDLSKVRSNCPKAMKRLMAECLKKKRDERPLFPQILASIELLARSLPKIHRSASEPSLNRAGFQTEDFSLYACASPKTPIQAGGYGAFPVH

[13] = target: Protein kinase C zeta type (Homo sapiens, UniProt Q05513); experiment: Inhibition of PKCzeta (unknown origin) after 60 mins by TR-FRET assay
[14] = target: Mitogen-activated protein kinase kinase kinase 10 (Homo sapiens, UniProt Q02779); experiment: Inhibition of MAP3K10 (unknown origin) after 60 mins by TR-FRET assay
Mitogen-activated protein kinase kinase kinase 10, sequence (Q02779 whole entry): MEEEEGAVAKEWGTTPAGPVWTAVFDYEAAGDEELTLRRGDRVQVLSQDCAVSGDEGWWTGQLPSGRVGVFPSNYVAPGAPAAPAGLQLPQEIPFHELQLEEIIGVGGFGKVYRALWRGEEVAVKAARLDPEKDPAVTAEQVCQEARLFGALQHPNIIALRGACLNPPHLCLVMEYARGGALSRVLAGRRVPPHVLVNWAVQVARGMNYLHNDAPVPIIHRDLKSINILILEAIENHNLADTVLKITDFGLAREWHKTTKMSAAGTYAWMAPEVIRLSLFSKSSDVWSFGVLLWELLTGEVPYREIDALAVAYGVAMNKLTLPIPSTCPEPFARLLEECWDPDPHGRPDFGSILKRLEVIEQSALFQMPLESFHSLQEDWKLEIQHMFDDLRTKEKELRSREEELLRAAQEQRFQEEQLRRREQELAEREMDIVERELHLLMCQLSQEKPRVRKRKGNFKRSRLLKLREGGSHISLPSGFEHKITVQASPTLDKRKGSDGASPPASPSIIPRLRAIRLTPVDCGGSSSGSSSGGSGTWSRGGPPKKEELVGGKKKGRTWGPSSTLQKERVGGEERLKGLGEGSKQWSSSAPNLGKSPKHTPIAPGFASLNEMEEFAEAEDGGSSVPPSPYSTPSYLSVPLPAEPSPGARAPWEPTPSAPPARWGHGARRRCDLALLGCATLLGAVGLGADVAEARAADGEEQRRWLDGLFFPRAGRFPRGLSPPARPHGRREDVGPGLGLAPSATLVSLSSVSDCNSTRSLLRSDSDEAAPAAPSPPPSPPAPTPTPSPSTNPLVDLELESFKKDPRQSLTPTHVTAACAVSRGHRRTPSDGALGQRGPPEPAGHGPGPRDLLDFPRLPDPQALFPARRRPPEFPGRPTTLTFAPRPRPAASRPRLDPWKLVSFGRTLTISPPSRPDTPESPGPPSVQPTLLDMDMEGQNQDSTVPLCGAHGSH

[15] = target: cGMP-dependent protein kinase 1 (Homo sapiens, UniProt Q13976); experiment: Inhibition of PKG1A (unknown origin) after 60 mins by TR-FRET assay
[16] = target: Calcium/calmodulin-dependent protein kinase kinase 2 (Homo sapiens, UniProt Q96RR4); experiment: Inhibition of CAMKK2 (unknown origin) after 60 mins by TR-FRET assay
[17] = target: Dual specificity mitogen-activated protein kinase kinase 3 (Homo sapiens, UniProt P46734); experiment: Inhibition of MAP2K3 (unknown origin) after 60 mins by TR-FRET assay
[18] = target: RAC-alpha serine/threonine-protein kinase (Homo sapiens, UniProt P31749); experiment: Inhibition of AKT (unknown origin) after 60 mins by TR-FRET assay
[19] = target: Epidermal growth factor receptor (Homo sapiens, UniProt P00533); experiment: Inhibition of EGFR (unknown origin) after 60 mins by TR-FRET assay
[20] = Unbound clearance in human microsomes; type: ADME, Microsome
[21] = target: Cyclin-dependent kinase 2 (Homo sapiens, UniProt P24941); experiment: Inhibition of CDK2 (unknown origin) after 60 mins by TR-FRET assay
[22] = target: Epithelial discoidin domain-containing receptor 1 (Homo sapiens, UniProt Q08345); experiment: Inhibition of DDR1 (unknown origin) after 60 mins by TR-FRET assay
Epithelial discoidin domain-containing receptor 1, sequence (Q08345 whole entry, the tested form may be a part): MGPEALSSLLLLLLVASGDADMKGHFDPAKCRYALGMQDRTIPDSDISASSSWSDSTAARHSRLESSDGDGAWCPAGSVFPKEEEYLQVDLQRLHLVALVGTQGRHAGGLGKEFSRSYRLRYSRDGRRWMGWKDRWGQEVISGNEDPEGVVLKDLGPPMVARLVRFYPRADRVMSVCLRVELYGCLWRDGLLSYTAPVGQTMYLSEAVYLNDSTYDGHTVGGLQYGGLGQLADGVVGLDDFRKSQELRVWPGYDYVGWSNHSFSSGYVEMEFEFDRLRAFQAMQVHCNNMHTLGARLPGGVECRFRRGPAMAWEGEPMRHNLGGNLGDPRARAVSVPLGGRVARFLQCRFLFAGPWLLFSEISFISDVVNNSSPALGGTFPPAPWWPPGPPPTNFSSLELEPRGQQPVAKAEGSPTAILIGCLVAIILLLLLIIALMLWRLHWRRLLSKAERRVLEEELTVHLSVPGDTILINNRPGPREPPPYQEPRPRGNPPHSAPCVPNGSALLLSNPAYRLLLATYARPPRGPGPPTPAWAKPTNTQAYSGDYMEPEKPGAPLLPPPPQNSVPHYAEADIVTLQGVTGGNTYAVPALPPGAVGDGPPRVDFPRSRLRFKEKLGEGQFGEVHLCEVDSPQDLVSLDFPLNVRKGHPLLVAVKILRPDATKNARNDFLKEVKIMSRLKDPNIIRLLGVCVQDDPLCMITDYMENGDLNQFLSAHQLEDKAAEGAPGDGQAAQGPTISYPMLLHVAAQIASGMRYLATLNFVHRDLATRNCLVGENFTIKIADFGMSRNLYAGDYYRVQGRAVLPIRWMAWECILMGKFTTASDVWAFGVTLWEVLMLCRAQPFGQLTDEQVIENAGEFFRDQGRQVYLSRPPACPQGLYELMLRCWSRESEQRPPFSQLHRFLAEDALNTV

[23] = target: Proto-oncogene tyrosine-protein kinase Src (Homo sapiens, UniProt P12931); experiment: Inhibition of SRC (unknown origin) after 60 mins by TR-FRET assay
[24] = target: Tyrosine-protein kinase ABL1 (Homo sapiens, UniProt P00519); experiment: Inhibition of ABL (unknown origin) after 60 mins by TR-FRET assay
Tyrosine-protein kinase ABL1, sequence (P00519 whole entry): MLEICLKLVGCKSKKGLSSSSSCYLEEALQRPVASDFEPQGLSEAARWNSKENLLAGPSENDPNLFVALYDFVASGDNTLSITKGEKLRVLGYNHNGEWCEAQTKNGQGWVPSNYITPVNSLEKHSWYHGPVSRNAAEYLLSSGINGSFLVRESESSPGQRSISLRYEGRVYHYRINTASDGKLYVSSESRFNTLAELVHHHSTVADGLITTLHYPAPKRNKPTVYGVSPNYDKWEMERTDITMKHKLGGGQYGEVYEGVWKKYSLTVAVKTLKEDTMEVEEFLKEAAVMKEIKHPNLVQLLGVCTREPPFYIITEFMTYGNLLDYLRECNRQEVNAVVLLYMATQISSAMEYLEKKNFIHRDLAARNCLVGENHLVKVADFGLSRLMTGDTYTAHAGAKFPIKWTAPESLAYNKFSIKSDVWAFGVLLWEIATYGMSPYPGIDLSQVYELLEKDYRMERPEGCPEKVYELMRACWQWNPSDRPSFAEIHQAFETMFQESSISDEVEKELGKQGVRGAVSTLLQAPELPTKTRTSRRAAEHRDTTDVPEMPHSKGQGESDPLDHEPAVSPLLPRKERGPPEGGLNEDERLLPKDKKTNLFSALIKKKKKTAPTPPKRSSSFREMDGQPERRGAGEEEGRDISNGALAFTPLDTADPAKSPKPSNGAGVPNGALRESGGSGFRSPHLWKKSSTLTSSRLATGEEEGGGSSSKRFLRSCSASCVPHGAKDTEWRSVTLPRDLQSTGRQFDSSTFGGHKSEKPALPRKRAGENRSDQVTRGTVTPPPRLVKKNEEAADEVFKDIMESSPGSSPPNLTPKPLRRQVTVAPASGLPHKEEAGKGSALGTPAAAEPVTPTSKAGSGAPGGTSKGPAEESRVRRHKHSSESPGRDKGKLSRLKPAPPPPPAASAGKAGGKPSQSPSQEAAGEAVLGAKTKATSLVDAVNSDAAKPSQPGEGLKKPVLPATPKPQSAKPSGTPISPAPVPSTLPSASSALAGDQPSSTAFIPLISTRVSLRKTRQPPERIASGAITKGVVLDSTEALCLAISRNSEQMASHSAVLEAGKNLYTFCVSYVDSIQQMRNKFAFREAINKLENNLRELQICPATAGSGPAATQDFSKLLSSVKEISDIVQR

Serine/threonine-protein kinase 16, sequence (O75716 whole entry): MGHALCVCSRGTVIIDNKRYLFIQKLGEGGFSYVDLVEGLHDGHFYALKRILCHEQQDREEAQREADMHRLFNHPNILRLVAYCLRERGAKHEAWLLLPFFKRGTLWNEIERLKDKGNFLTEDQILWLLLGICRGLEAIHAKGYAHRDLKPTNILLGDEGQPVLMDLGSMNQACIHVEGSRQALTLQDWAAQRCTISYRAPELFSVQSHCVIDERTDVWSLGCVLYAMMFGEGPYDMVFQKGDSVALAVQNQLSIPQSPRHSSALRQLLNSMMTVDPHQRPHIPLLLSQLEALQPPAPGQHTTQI

SMILES	IC50 [1] [nM]	IC50 [2] [nM]	solubility at 48 h [3] [µM]	activity at 0.5 h, 10 µM (CYP3A4 [4]) [%]	activity at 0.5 h, 50 µM (CYP3A4 [5]) [%]	activity at 0 min, 10 µM (CYP3A4 [6]) [%]	activity at 0 min, 50 µM (CYP3A4 [7]) [%]	IC50 [8] [nM]	IC50 [24] [nM]	further results
Cc1n[nH]c2cc(Nc3nc(NC4CC4)c4occc4n3)ccc12	4500	2160	99 (≈ 31.7 µg/mL)	51	28	94	87	–	–	TDI (Cytochrome P450 3A4): Active
FC(F)(F)CNc1nc(Nc2ccc3cn[nH]c3c2)nc2ccoc12	–	–	–	–	–	–	–	81	–	–
CC1(C)OCC(=O)Nc2cc(Nc3nc(NCC(F)(F)F)c4occc4n3)ccc21	885	–	4.96 (≈ 2.09 µg/mL)	81	75	91	92	–	408	IC50 [9]: > 10000 nM; IC50 [10]: > 10000 nM; IC50 [11]: > 10000 nM; IC50 [12]: > 10000 nM; IC50 [13]: > 10000 nM; IC50 [14]: 4550 nM; IC50 [15]: > 10000 nM; IC50 [16]: 1910 nM; IC50 [17]: > 10000 nM; IC50 [18]: > 10000 nM; IC50 [19]: > 10000 nM; CL free [20]: 170 mL/min/kg; IC50 [21]: > 10000 nM; IC50 [22]: > 10000 nM; IC50 [23]: 156 nM
FC(F)(F)CNc1nc(Nc2ccc(N3CCOCC3)c(Cl)c2)nc2ccoc12	–	1840	–	–	–	–	–	61	2750	–

Reference: ChEMBL document CHEMBL4007384, “Synthesis and optimization of furano[3,2-d]pyrimidines as selective spleen tyrosine kinase (Syk) inhibitors” (Bioorg Med Chem Lett, 2016)
